From article PMC11039317, “Acidity of persulfides and its modulation by the protein environments in sulfide quinone oxidoreductase and thiosulfate sulfurtransferase” (The Journal of Biological Chemistry, 2024)
Several values for one entry are separate records, joined by “and”; a condition that tells them apart may be missing. Equal entries are not always repeated. Where two headings read alike, the source gives them in different places. Marks after values point to notes of the source that are not given here.

Key:
Cys = conditions: cited from earlier work
Human SQOR [1] = target: T1, Human SQOR (Homo sapiens, UniProt Q9Y6N5); conditions: cited from earlier work
T1 construct: made in house
T1 sequence (Q9Y6N5 whole entry): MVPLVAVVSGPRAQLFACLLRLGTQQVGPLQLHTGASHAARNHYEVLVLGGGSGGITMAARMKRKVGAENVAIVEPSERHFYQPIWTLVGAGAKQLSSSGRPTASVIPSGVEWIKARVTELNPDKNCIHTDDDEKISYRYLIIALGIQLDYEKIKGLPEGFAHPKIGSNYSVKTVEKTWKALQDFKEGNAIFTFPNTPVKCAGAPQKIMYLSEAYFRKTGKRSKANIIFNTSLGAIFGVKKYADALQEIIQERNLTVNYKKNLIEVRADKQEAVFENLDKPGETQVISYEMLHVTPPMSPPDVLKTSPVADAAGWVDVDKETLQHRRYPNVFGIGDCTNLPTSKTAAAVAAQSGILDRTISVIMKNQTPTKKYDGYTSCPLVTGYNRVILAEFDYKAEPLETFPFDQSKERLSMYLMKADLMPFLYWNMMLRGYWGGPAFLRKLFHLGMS

[2] = cited from earlier work
[3] = pKa and nucleophilicity of LMW persulfides by pH-dependence of reaction rates with mBrB (stopped-flow fluorescence); conditions: for ΔpKa: analog thiol pKa minus persulfide pKa; for pKa, Persulfide / kind with mBrB, Persulfide: I = 0.15, 25 °C, this work; for kind with mBrB, Persulfide: pH-independent rate constant
[4] = cited from earlier work; for kind with mBrB, Analog thiol: pH-independent rate constant of analog thiol
Human SQOR [5] = target: T1, Human SQOR; assay type: biochemical; conditions: neutral pH
Method: The acidity of the persulfidated SQOR was evaluated by the pH-dependence of the steady-state rates. For enzymes that catalyze reactions with one substrate, the kinetic parameter kcat/Km (specificity constant) is an apparent second-order rate constant that reports on the properties of the free enzyme and the free substrate ([32]). kcat/Km can be calculated from the kinetic parameters kcat and Km obtained from typical Michaelis–Menten analysis (Equation 1). […]
SQOR uses three substrates: H2S, a sulfur acceptor (Acc^−), and CoQ (Fig. 1A). At saturating concentrations of H2S and CoQ, the kcat/Km^Acc- represents the apparent rate constant for the reaction between the sulfur acceptor and the Cys379SSH of the bis-persulfidated SQOR, and its pH-dependency reports on the pKa of both free species. Although the pH dependence of human SQOR activity has been reported ([25]), the pH dependence of kcat/Km is unavailable. The steady-state rate of SQOR was determined by monitoring the reduction of coenzyme Q1 (CoQ1) at 278 nm at varying pH at 25 °C. […]. Therefore, in the experiments with cyanide, the reactions were started with cyanide instead of SQOR so that the contribution of SQOR with H2S alone could be subtracted.
In experiments with sulfite, steady-state time courses with varying concentrations of sulfite (0.01–8 mM) were recorded, and linear functions were fitted to the first 15 to 40 s following SQOR addition (Fig. 3A). The slope before SQOR addition was subtracted to correct for the background nonenzymatic reduction of CoQ1, which was minimal. From the hyperbolic fit of the activity versus sulfite concentration plot (Fig. 3B), the kinetic parameters kcat^sulfite and Km^sulfite were obtained, and the kcat/Km^sulfite for each pH were calculated. As expected, when the kcat/Km^sulfite were plotted against pH, a bell-shaped profile was obtained (Fig. 3C), consistent with a reaction between a deprotonated species and a protonated one. An equation with two pKa was fitted to the data (Equation 3), assuming that deprotonated sulfite and protonated SQOR persulfide were the reacting species. […]. […]
The steady-state rates were obtained from linear fits to the data during the first 4 to 20 s following cyanide addition, and the slopes before cyanide addition were subtracted. The kcat/Km^cyanide at each pH was calculated according to Equation 2 using the enzyme (50 nM) and cyanide (90 μM) initial concentrations. […]
Human SQOR was expressed and purified as reported previously ([24], [25]). SQOR concentration was determined from the FAD absorbance at 450 nm, using ε = 11,500 M^−1 cm^−1 ([25]). […]
The activity of SQOR was measured at different pHs in a temperature-controlled spectrophotometer (Shimadzu UV-2600 or UV-1900i). […]

Human TST = Human TST (Homo sapiens, UniProt Q16762); conditions: cited from earlier work
Human TST, sequence (Q16762 whole entry): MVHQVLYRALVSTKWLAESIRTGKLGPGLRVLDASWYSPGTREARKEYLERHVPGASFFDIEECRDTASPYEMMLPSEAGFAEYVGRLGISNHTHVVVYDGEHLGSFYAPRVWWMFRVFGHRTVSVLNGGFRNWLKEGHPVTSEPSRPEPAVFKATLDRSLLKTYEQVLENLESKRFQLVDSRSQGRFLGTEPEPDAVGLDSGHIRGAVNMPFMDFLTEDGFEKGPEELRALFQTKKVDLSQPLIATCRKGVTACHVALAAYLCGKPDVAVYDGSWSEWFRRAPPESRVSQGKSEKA

Cys248 [6] = target: T2, Cys248 (UniProt position 248, PLIATCRKGVT); assay: kinetics; conditions: 25 °C; I = 0.15 M (120 mM NaCl); acetic/MES/Tris (15 mM acetic acid, 15 mM MES, 30 mM Tris, 120 mM NaCl, 0.1 mM DTPA); TST thiol (sulfur-free) form reacting with thiosulfate, pseudo-first order
Cys248 [7] = target: T2, Cys248; conditions: cited from earlier work
bovine TST = conditions: cited from earlier work
TST thiol = TST thiol (Homo sapiens, UniProt Q16762)
TST thiol, sequence (Q16762 whole entry): as above
Method: The pH-dependency of the reaction rates of TST persulfide with sulfur acceptors and of TST thiol with thiosulfate were studied by following changes in the intrinsic fluorescence (λex = 295 nm, US 360 nm bandpass filter) in the stopped-flow spectrofluorimeter.
To prepare TST thiol, ∼ 100 μM thiosulfate was added to TST stocks ( ∼ 20 μM) at room temperature. After 15 min, ∼ 200 μM cyanide was added and left to react for 10 min. The remaining LMW compounds were removed with a PD MidiTrap G-25 column equilibrated with 10 mM Tris buffer, pH 8.5. The TST thiol was diluted in ultrapure water (1.8–2.0 μM) in one of the stopped-flow syringes and reacted with thiosulfate (400 μM) prepared in the other syringe in either acetic/MES/Tris buffer 2× (pH 3.68–8.75) or in ACES/Tris/ethanolamine buffer 2× (pH 6.68–10.34), at 25 °C. The final concentrations were halved as a result of the symmetrical stopped-flow mixing. The decrease in the intrinsic fluorescence caused by persulfide formation was recorded during 0.8 to 200 s depending on the time course, and the final pH was measured.

[8] = forms as drawn in Table 1 (ammonium form for CysOMeSSH)

In the case of “3-Mercaptopyruvate sulfurtransferase (MPST) (Homo sapiens)”, the pKa (Cys) is listed as 5.2.

For `COC1=C(OC)C(=O)C(CC=C(C)C)=C(C)C1=O` [CoQ1, coenzyme Q1], the Km (Human SQOR [1]; pH 7.5, read-out: Km^CoQ1) is given as 19 µM.

For `CC(C)c1ccccc1` [Cumene], the “pKa, Analog thiol” value ([2]; analog thiol of the persulfide, predicted value based on similar thiols) is given as >10 ^h, the “pKa, Persulfide” value [2] is given as 7.0 ^g and the ΔpKa [3] is given as over 3.

For `COC(=O)[C@@H](N)CSS` [CysOMeSS^−, cysteine methyl ester persulfide], the “pKa, Persulfide” value [3, 8] was 4.6 ± 0.1 ^a, the “pKa, Persulfide” value ([3]; second pKa of two-pKa fit, amino (NH2) form of CysOMeSSH) was 6.3 ± 0.6 ^a and the ΔpKa [3] was 2.8. The ΔpKa ([3]; amino (NH2) form of CysOMeSSH) was 2.6, the “kind with mBrB, Persulfide” value [3] was 3.8 ± 0.4 ^a × 10^3 M^−1 s^−1 and the “kind with mBrB, Persulfide” value ([3]; amino (NH2) form of CysOMeSSH) was 5.4 ± 0.8 ^a × 10^3 M^−1 s^−1.

In the case of `N[C@@H](CSS)C(=O)O` [CysSS^−, cysteine persulfide], the “pKa, Persulfide” value [3, 8] is reported as 5.2 ± 0.1 ^a, the ΔpKa [3] is reported as 3.1 and the “kind with mBrB, Persulfide” value [3] is reported as 3.2 ± 0.1 ^a × 10^3 M^−1 s^−1. The “pH-independent second-order rate constant, kind, with mBrB” value ([3]; persulfide, 25 °C) was “(3.2 ± 0.1) × 10^3 M^−1 s^−1”.

In the case of `NCCSS` [CystSS^−, cysteamine persulfide], the “pKa, Persulfide” value [3, 8] is reported as 4.87 ± 0.09 ^a and the “kind with mBrB, Persulfide” value [3] is reported as 3.9 ± 0.2 ^a × 10^3 M^−1 s^−1.

In the case of `COC(=O)[C@@H](N)CS` [Cysteine methyl ester], the “pKa, Analog thiol” value ([2]; analog thiol, amino (NH2) form) is listed as 8.88 ^b, the “pKa, Analog thiol” value ([2]; analog thiol, ammonium form) is listed as 7.44 ^b and the “pKa of the ammonium group” value ([2]; listed as CysOMeSH) is listed as 6.88. The “pKa of the ammonium group” value ([2]; listed as CysOMeS^−) was 8.32.

In the case of `N[C@@H](CS)C(=O)O` [Cysteine], the “kind with mBrB, Analog thiol” value [4] is listed as 105 ^d M^−1 s^−1 and the “pKa, Analog thiol” value ([2]; analog thiol) is listed as 8.29 ^d.

For `N[C@@H](CCC(=O)N[C@@H](CSS)C(=O)NCC(=O)O)C(=O)O` [GSS^−, glutathione persulfide], the “pKa, Persulfide” value ([4]; I = 0.15, 25 °C) is given as 5.45 ± 0.03 ^e, the “kind with mBrB, Persulfide” value ([4]; pH-independent rate constant, I = 0.15, 25 °C) is given as 9.0 ± 0.2 ^e × 10^3 M^−1 s^−1 and the ΔpKa [3] is given as 3.49.

In the case of `N[C@@H](CCC(=O)N[C@@H](CS)C(=O)NCC(=O)O)C(=O)O` [Glutathione, glutathione], the “kind with mBrB, Analog thiol” value [4] is given as 208 ^d M^−1 s^−1, the Km (Human SQOR [1]; pH 7.4, read-out: Km^GSH) is given as 8000 µM and the “pKa, Analog thiol” value ([2]; analog thiol) is given as 8.94 ^d. For the same molecule, the “pKa of the glycyl carboxylic acid” value ([2]; neutral variant of GSH) was 3.36 and the “pKa of the glycyl carboxylic acid” value ([2]; positive variant of GSH) was 3.12.

For `NC(CCSS)C(=O)O` (stereo not shown) [HcySS^−, homocysteine persulfide], the “kind with mBrB, Persulfide” value [3] was 5.4 ± 0.1 ^a × 10^3 M^−1 s^−1.

For `NC(CCS)C(=O)O` (stereo not shown) [Homocysteine], the “pKa, Analog thiol” value ([2]; analog thiol) is given as 9.1 ^d.

In the case of `S` [Persulfide H2S, hydrogen sulfide], the Km (Human SQOR [1]; pH 7.4, H2S as sulfur acceptor, read-out: Km^H2S (Acceptor)) is given as 350 µM and the Km (Human SQOR [1]; pH 7.5, first step of catalysis, read-out: Km^H2S (Donor)) is given as 13 µM.

In the case of `Cl` [chloride], the “increase of apparent Km^sulfite” value (Human SQOR [5]; in the presence of 120 mM chloride versus absence) is reported as about 20 fold and the Ki (Human SQOR [5]; sulfite as sulfur acceptor, read-out: Ki (estimated), reversible competitive inhibition versus sulfite) is reported as about 7.4 mM.

For `O=S(O)(O)=S` [thiosulfate], the “thiosulfate concentration causing inhibition of TST” value (Human TST; b33: with 312 μM cyanide) is given as 30 mM and > 30 mM and the Km (Human TST; read-out: Km^thiosulfate) is given as 18000 to 45000 µM.

For `OCCSS` [β-MESS^−, β-mercaptoethanol persulfide], the “pKa, Persulfide” value [3, 8] was 5.8 ± 0.1 ^a, the ΔpKa [3] was 3.8 and the “kind with mBrB, Persulfide” value [3] was 7.5 ± 0.4 ^a × 10^3 M^−1 s^−1.

For `OCCS` [β-Mercaptoethanol], the “kind with mBrB, Analog thiol” value [4] is listed as 519 ^d M^−1 s^−1 and the “pKa, Analog thiol” value ([2]; analog thiol) is listed as 9.6 ^d.

For “Thiosulfate sulfurtransferase (TST, rhodanese), thiol form (Homo sapiens)”, the pKa (Cys248 [6]) was 6.5 ± 0.1.

For “Thiosulfate sulfurtransferase (rhodanese), bovine liver (Bos taurus)”, the pKa (Cys248 [7]; free enzyme thiol ('the thiol alone')) is listed as 7.8, the pKa (Cys248 [7]; thiol in complex with substrate analogs) is listed as 6.75 to 7.05 and the pKa (Cys248 [7]; thiol in complex with thiosulfate) is listed as 6.5.

B1: bovine TST: bovine thiosulfate sulfurtransferase (rhodanese), literature values (protein, UniProt P00586 2-297, looked up)
Thiosulfate sulfurtransferase: VHQVLYRALVSTKWLAESVRAGKVGPGLRVLDASWYSPGTREARKEYLERHVPGASFFDIEECRDKASPYEVMLPSEAGFADYVGSLGISNDTHVVVYDGDDLGSFYAPRVWWMFRVFGHRTVSVLNGGFRNWLKEGHPVTSEPSRPEPAIFKATLNRSLLKTYEQVLENLESKRFQLVDSRAQGRYLGTQPEPDAVGLDSGHIRGSVNMPFMNFLTEDGFEKSPEELRAMFEAKKVDLTKPLIATCRKGVTACHIALAAYLCGKPDVAIYDGSWFEWFHRAPPETWVSQGKGGKA
In the case of B1, the “pKa of the thiol alone” value (bovine TST; bovine TST) is listed as 7.8, the “pKa of the thiol in complex with substrate analogs” value (bovine TST) is listed as 6.75 to 7.05 and the “pKa of the thiol in complex with thiosulfate” value (bovine TST) is listed as 6.5.

B2: TST thiol (protein, UniProt Q16762 2-297, looked up)
Thiosulfate sulfurtransferase: VHQVLYRALVSTKWLAESIRTGKLGPGLRVLDASWYSPGTREARKEYLERHVPGASFFDIEECRDTASPYEMMLPSEAGFAEYVGRLGISNHTHVVVYDGEHLGSFYAPRVWWMFRVFGHRTVSVLNGGFRNWLKEGHPVTSEPSRPEPAVFKATLDRSLLKTYEQVLENLESKRFQLVDSRSQGRFLGTEPEPDAVGLDSGHIRGAVNMPFMDFLTEDGFEKGPEELRALFQTKKVDLSQPLIATCRKGVTACHVALAAYLCGKPDVAVYDGSWSEWFRRAPPESRVSQGKSEKA
modifications: active-site cysteine thiol
In the case of B2, the “pH-independent rate constant, Cyanide” value (TST thiol) is reported as “No reaction”, the “pH-independent rate constant, Sulfite” value (TST thiol) is reported as “No reaction” and the “second-order rate constant with thiosulfate” value (TST thiol) is reported as about 30000 M⁻¹ s⁻¹. The “pKa of the decrease in kobs at alkaline pH” value (TST thiol; pH 6.68) was about 10.
